From patent publication US10017507B2, “Diaza-benzofluoranthrene compounds” (HARBIN PHARMACEUTICAL GROUP CO., LTD. GENERAL …, priority 2015, dated 2018)

Target: T1, PDE1A (Homo sapiens, UniProt P54750)
T1 construct: purchased SignalChem
Test: In vitro detection of phosphodiesterase (PDE): PDE1A enzyme activity by fluorescence polarization immunoassay
Assay type: biochemical
Settings: human-derived enzyme, cAMP or cGMP substrate; read-out: IC50s for PDE1
Method in brief: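 Human PDE1A (enzyme solution 3 pM) was preincubated 10 min at RT with compound in 10 mM Tris-HCl pH 7.5, 5 mM MgCl2, 0.01% Brij 35, 1 mM DTT, 1% DMSO, with Ca2+-calmodulin cofactor. Reaction ran 1 h at RT on […] cAMP or cGMP, then 90 min with antibody/tracer. FP at Ex/Em 620/688 was converted to AMP/GMP via standard curve to give IC50.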

IC50 [µM]	SMILES
> 100	CC[C@@]12C=C(c3noc(C(F)(F)F)n3)n3c4c(c5ccccc53)CCN(CCC1)[C@H]42 [Example 21, 3-((4^1S,13aS)-13a-ethyl-2,3,4^1,5,6,13a-hexahydro-1H-indolo[3,2,1-de]pyrido[3,2,1-ij][1,5]naphthyridin-12-yl)-5-trifluoromethyl-1,2,4-oxadiazole]
≤ 1	CCc1oc(C2=C[C@]3(CC)CCCN4CCc5c(n2c2ccccc52)[C@@H]43)nc1C [Example 53, 5-ethyl-2-((4^1S,13aS)-13a-ethyl-2,3,4^1,5,6,13a-hexahydro-1H-indolo[3,2,1-de]pyrido[3,2,1-ij][1,5]naphthyridin-12-yl)-4-methyloxazole]
≤ 1	CC[C@@]12C=C(c3nc(C)c(C4CC4)o3)n3c4c(c5ccccc53)CCN(CCC1)[C@H]42 [Example 58, 5-cyclopropyl-2-((4^1S,13aS)-13a-ethyl-2,3,4^1,5,6,13a-hexahydro-1H-indolo[3,2,1-de]pyrido[3,2,1-ij][1,5]naphthyridin-12-yl)-4-methyloxazole]
20 to 100	CC[C@@]12C=C(c3nc(C)no3)n3c4c(c5cc(S(=O)(=O)N(C)C)ccc53)CCN(CCC1)[C@H]42 [Example 80, (4^1S,13aS)-13a-ethyl-N,N-dimethyl-12-(3-methyl-1,2,4-oxadiazol-5-yl)-2,3,4^1,5,6,13a-hexahydro-1H-indolo[3,2,1-de]pyrido[3,2,1-ij][1,5]naphthyridin-8-sulfonamide]
20 to 100	CC[C@@]12C=C(c3nc(C)no3)n3c4c(c5c(S(=O)(=O)N(C)C)cccc53)CCN(CCC1)[C@H]42 [Example 83, (4^1S,13aS)-13a-ethyl-N,N-dimethyl-12-(3-methyl-1,2,4-oxadiazol-5-yl)-2,3,4^1,5,6,13a-hexahydro-1H-indolo[3,2,1-de]pyrido[3,2,1-ij][1,5]naphthyridin-7-sulfonamide]
1 to 20	CC[C@@]12C=C(c3noc(C)n3)n3c4c(c5ccccc53)CCN(CCC1)[C@H]42 [Example 20, 3-((4^1S,13aS)-13a-ethyl-2,3,4^1,5,6,13a-hexahydro-1H-indolo[3,2,1-de]pyrido[3,2,1-ij][1,5]naphthyridin-12-yl)-5-methyl-1,2,4-oxadiazole]
> 100	CC[C@@]12C=C(/C=C/C(=O)O)n3c4c(c5ccccc53)CCN(CCC1)[C@H]42 [Example 5, (E)-3-((4^1S,13aS)-13a-ethyl-2,3,4^1,5,6,13a-hexahydro-1H-indolo[3,2,1-de]pyrido[3,2,1-ij][1,5]naphthyridin-12-yl)acrylic acid]
≤ 1	CC[C@@]12C=C(c3nc(C)c(OC)o3)n3c4c(c5ccccc53)CCN(CCC1)[C@H]42 [Example 41, 2-((4^1S,13aS)-13a-ethyl-2,3,4^1,5,6,13a-hexahydro-1H-indolo[3,2,1-de]pyrido[3,2,1-ij][1,5]naphthyridin-12-yl)-5-methoxy-4-methyloxazole]
1 to 20	CCOC(=O)/C=C/C1=C[C@]2(CC)CCCN3CCc4c(n1c1ccccc41)[C@@H]32 [Example 6, (E)-ethyl-3-((4^1S,13aS)-13a-ethyl-2,3,4^1,5,6,13a-hexahydro-1H-indolo[3,2,1-de]pyrido[3,2,1-ij][1,5]naphthyridin-12-yl)acrylate]
1 to 20	CC[C@@]12C=C(c3nc(C)c(C)o3)n3c4c(c5c(S(=O)(=O)N(C)C)cccc53)CCN(CCC1)[C@H]42 [Example 74, (4^1S,13aS)-12-(4,5-dimethyloxazol-2-yl)-13a-ethyl-N,N-dimethyl-2,3,4^1,5,6,13a-hexahydro-1H-indolo[3,2,1-de]pyrido[3,2,1-ij][1,5]naphthyridin-7-sulfonamide]
1 to 20	CC[C@@]12C=C(c3nc(C)no3)n3c4c(c5ccc(S(=O)(=O)NC)cc53)CCN(CCC1)[C@H]42 [Example 76, (4^1S,13aS)-13a-ethyl-N-methyl-12-(3-methyl-1,2,4-oxadiazol-5-yl)-2,3,4^1,5,6,13a-hexahydro-1H-indolo[3,2,1-de]pyrido[3,2,1-ij][1,5]naphthyridin-9-sulfonamide]
